For orientation: Kd means the free concentration of one partner at which half of the binding sites on the other are occupied at equilibrium, for simple one-to-one binding. The low end stands for a tighter complex, the high end for a looser complex.

Experimental findings from ChEMBL document CHEMBL3091419, “Cytidine derivatives as IspF inhibitors of Burkolderia pseudomallei” (Bioorg Med Chem Lett, 2013) are described below.

The source made the active and inactive calls. The calls are words filed in the database; no cut-off is given here.

The target of test [1] is T1, 2-C-methyl-D-erythritol 2,4-cyclodiphosphate synthase (Burkholderia pseudomallei (strain K96243), UniProt Q63T71).
T1 sequence (Q63T71 whole entry): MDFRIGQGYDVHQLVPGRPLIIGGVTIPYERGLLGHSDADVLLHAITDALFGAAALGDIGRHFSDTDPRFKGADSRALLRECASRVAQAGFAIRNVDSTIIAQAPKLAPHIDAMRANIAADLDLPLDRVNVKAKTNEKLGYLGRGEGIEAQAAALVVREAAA
The test can be described thus: Binding affinity to Burkolderia pseudomallei IspF by surface plasmon resonance method. For orientation: Surface plasmon resonance follows binding to a sensor surface in real time, without labels.

Test [2] relates to Plasmodium falciparum. The test can be described thus: Antimicrobial activity against Plasmodium falciparum D6 at 40 uM. The class given is functional, organism-based.
In test [3] the test system is Burkholderia thailandensis. Nature of the test: Antimicrobial activity against Burkholderia thailandensis at 1 mM. The class given is functional.
Test [4] relates to Plasmodium falciparum. The test can be described thus: Antimicrobial activity against Plasmodium falciparum W2 at 40 uM. The class given is functional, organism-based.
In test [5] the test system is Plasmodium falciparum. Nature of the test: Antimicrobial activity against Plasmodium falciparum C235 at 40 uM. The class given is functional, organism-based.

For `Nc1ccn([C@@H]2O[C@H](CNC(=O)c3ccncc3)[C@@H](O)[C@H]2O)c(=O)n1`, in test [1], the Kd was determined as 180 µM. Moreover, the result (with Plasmodium falciparum [2]; in test [3]; in the test on Plasmodium falciparum [4]; in the test on Plasmodium falciparum [5]) was inactive.
`Nc1ccn([C@@H]2O[C@H](CNC(=O)c3cscn3)[C@@H](O)[C@H]2O)c(=O)n1` had an equilibrium dissociation constant (Kd) in test [1] of 200 µM. Besides, the result (with Plasmodium falciparum [2]; in test [3]; in the test on Plasmodium falciparum [4]; in the test on Plasmodium falciparum [5]) was inactive.
With `Nc1ccn([C@@H]2O[C@H](CNC(=O)c3ccnc4nc[nH]c34)[C@@H](O)[C@H]2O)c(=O)n1`, in test [1], the affinity, expressed as Kd, was 90 µM. The outcome (in the test on Plasmodium falciparum [2]; in test [3]; in the test with Plasmodium falciparum [4]; with Plasmodium falciparum [5]) was inactive.
With `Nc1ccn([C@@H]2O[C@H](CNC(=O)c3cn4ccsc4n3)[C@@H](O)[C@H]2O)c(=O)n1`, the Kd in test [1] was 70 µM. Further, the outcome (in the test with Plasmodium falciparum [2]; in test [3]; in the test on Plasmodium falciparum [4]; in the test on Plasmodium falciparum [5]) was inactive.
Compound `Nc1ccn([C@@H]2O[C@H](CNC(=O)Cc3cn4ccsc4n3)[C@@H](O)[C@H]2O)c(=O)n1` returned a Kd in test [1] of 148 µM. Besides, the outcome (with Plasmodium falciparum [2]; in test [3]; with Plasmodium falciparum [4]; in the test on Plasmodium falciparum [5]) was inactive.
For the compound `OCc1cn2ccsc2n1`, in test [1], the Kd is 135 µM.
Same read-out and setting: under `Oc1ccc(-n2ccnc2)cc1` stands over 500 µM.
